Experimental data from EP0099121A2, “Pharmaceutical compositions” (Bristol-Myers Company, priority 1982, dated 1984).

tested on: Gastric Acid Output; test: Gastric antisecretory activity in the Gastric Fistula Rat (Table 2 title: Two-Hour Pylorus Ligated Rat); type: in vivo, Long Evans rats; conditions: Rattus norvegicus, sc; Route of Administration s.c.; numbers in parentheses are the 95% confidence limits; read-out: ED50
Procedure: Male Long Evans rats weighing about 240-260 grams at the time of cannula implantation are used. The design and implantation of the stainless steel cannula into the anterior wall of the fore-stomach are carried out essentially as described by Pare et al. [Laboratory Animal Science, 27, 244 (1977)]. The fistula components are designed and the operative procedure is carried out exactly as described in the above reference. Post operatively the animals are individually housed in solid bottom cages with sawdust and are allowed food and water ad libitum throughout the entire recovery period. Animals are not used for test purposes for at least 15 days after the operative procedure.
The animals are fasted but allowed water ad libitum for 20 hours before the testing procedure is to begin. Immediately prior to collection, the cannula is opened and the stomach washed gently with 30-40 mL of warm saline or distilled water to remove any residual contents. The catheter is then screwed into the cannula in place of the plugging screw and the rat is placed in a clear plastic rectangular cage measuring 40 cm long, 15 cm wide and 13 cm high. The bottom of the cage has a slit approximately 1.5 cm wide and 25 cm long running down the center to accommodate the catheter which hangs through it. In this way the rat is not restricted and can move freely about the cage during collection periods. The remainder of the assay is carried out as described by Ridley et al. [Research Comm. Chem. Path. Pharm., 17, 365 (1977)].
Gastric secretions collected during the first hour after washing the stomach are discarded as they may be contaminated. For oral evaluation, the catheter is then removed from the cannula and replaced with the plugging screw. Water (2 mL/kg) is administered orally via gastric intubation and the animal is returned to the cage for 45 minutes. After this time the plugging screw is removed and replaced with a catheter to which a small plastic vial has been attached to collect the gastric secretions. A two hour sample is collected (this represents the control secretion), the catheter removed and replaced with the plugging screw. The test drug is now administered orally in a volume of 2 mL/kg via gastric intubation. Forty-five minutes later the plugging screw is again removed, replaced with the catheter attached to a small plastic vial and another 2 hour sample is collected. The secretions in the second sample are compared to those of the control sample in order to determine the effects of the test drug.
When test compounds are to be evaluated parenterally, the animal is injected ip or sc with the test compound vehicle in a volume of 2 mL/kg immediately after discarding the initial 60 minute collection. A two hour sample is collected (control secretion) and the animals are injected either ip or sc with the test compound in a volume of 2 mL/kg. An additional two hour sample is collected and its secretions are compared to those of the control period to determing drug effects.
The samples are centrifuged in a graduated tube for volume determination. Titratable acidity is measured by titrating a one mL sample to pH 7.0 with 0.02N NaOH, using an Autoburet and an electrometric pH meter (Radiometer). Titratable acid output is calculated in microequivalents by multiplying the volume in milliliters by the acid concentration in milliequivalents per liter.
Results are expressed as percent inhibition relative to control readings. Dose response curves are constructed and ED values are calculated by regression analyses. At least three rats are used at each dosage level and a minimum of three dosage levels are utilized for determination of a dose response curve.

SMILES	ED50
CN(C)Cc1ccc(CSCCNC2=NS(=O)(=O)N=C2N2CCOCC2)o1 [Example 99, 3-{2-[(5-Dimethylaminomethyl-2-furyl)methylthio]ethylamino}-4-morpholino-1,2,5-thiadiazole 1,1-dioxide]	32 µmol/kg
COCCNC1=NS(=O)(=O)N=C1NCCSCc1ccc(CN(C)C)o1 [Example 100, 3-{2-[(5-Dimethylaminomethyl-2-furyl)methylthio]ethylamino}-4-(2-methoxyethylamino)-1,2,5-thiadiazole 1,1-dioxide]	1.6 µmol/kg
CN(C)Cc1ccc(CSCCNC2=NS(=O)(=O)N=C2N2CCCC2)o1 [Example 101, 3-{2-[(5-Dimethylaminomethyl-2-furyl)methylthio]ethylamino}-4-pyrrolidino-1,2,5-thiadiazole 1,1-dioxide]	68 µmol/kg
CCCCNC1=NS(=O)(=O)N=C1NCCSCc1ccc(CN(C)C)o1 [Example 103, 3-Butylamino-4-(2-[(5-dimethylaminomethyl-2-furyl)methylthio]-ethylamino}-1,2,5-thiadiazole 1,1-dioxide]	0.54 µmol/kg
CN(C)Cc1ccc(CSCCNC2=NS(=O)(=O)N=C2NCc2ccccn2)o1 [Example 104, 3-{2-[(5-Dimethylaminomethyl-2-furyl)methylthio]ethylamino}-4-[(2-pyridyl)methylamino]-1,2,5-thiadiazole 1,1-dioxide]	0.61 µmol/kg
CN(C)Cc1ccc(CSCCNC2=NS(=O)(=O)N=C2NO)o1 [Example 105, 3-{2-[(5-Dimethylaminomethyl-2-furyl)methylthio]ethy1arnino}-4-hydroxylamino-1,2,5-thiadiazole 1,1-dioxide]	1.65 µmol/kg
CONC1=NS(=O)(=O)N=C1NCCSCc1ccc(CN(C)C)o1 [Example 107, 3-{2-[(5-Dimethylaminomethyl-2-furyl)methylthio]ethylamino}-4-methoxyamino-1,2,5-thiadiazole 1,1-dioxide]	23 µmol/kg
CCCNC1=NS(=O)(=O)N=C1NCCSCc1ccc(CN(C)C)s1 [Example 108, 3-{2-[(5-Dimethylaminomethyl-2-thienyl)methylthio]ethylamino}-4-propylamino-1,2,5-thiadiazole 1,1-dioxide]	2.2 µmol/kg
CN(C)Cc1ccc(CSCCNc2n[s+]([O-])nc2N)s1 (stereo not shown) [Example 109, 3-Amino-4-{2-[(5-dimethylaminomethyl-2-thienyl)methylthio]-ethylamino}-1,2,5-thiadiazole 1-oxide]	1.4 µmol/kg
CN(C)Cc1ccc(CSCCNC2=NS(=O)(=O)N=C2NCc2cccnc2)s1 [Example 110, 3-{2-[(5-Dimethylaminomethyl-2-thienyl)methylthio]ethylamino}-4-[(3-pyridyl)methylamino]-1,2,5-thiadiazole 1,1-dioxide]	0.05 µmol/kg
CN(C)Cc1ccc(CSCCNC2=NS(=O)(=O)N=C2N)s1 [Example 111, 3-Amino-4-{2-[(5-dimethylaminomethyl-2-thienyl)methylthio]-ethylamino}-1,2,5-thiadiazole 1,1-dioxide]	0.64 µmol/kg
CN(C)Cc1ccc(CSCCNC2=NS(=O)(=O)N=C2NCc2ccccc2)s1 [Example 112, 3-Benzylamino-4-(2-[(5-dimethylaminomethyl-2-thienyl)-methylthio]ethylamino}-1,2,5-thiadiazole 1,1-dioxide]	1.2 µmol/kg
CNC1=NS(=O)(=O)N=C1NCCCOc1cccc(CN(C)C)c1 [Example 113, 3-[3-(3-Dimethylaminomethylphenoxy)propylamino]-4-methylamino-1,2,5-thiadiazole 1,1-dioxide]	0.07 µmol/kg
CNC1=NS(=O)(=O)N=C1NCCSCc1cnc(CN(C)C)s1 [Example 114, 3-{2-[(2-Dimethylaminomethylthiazol-5-yl)methylthio]-ethylamino}-4-methylamino-1,2,5-thiadiazole 1,1-dioxide]	~15 µmol/kg
CNc1n[s+]([O-])nc1NCCSCc1csc(NC(=N)N)n1 (stereo not shown) [Example 115, 3-{2-[(2-Guanidinothiazol-4-yl)methylthio]ethylamino}-4-methylamino-1,2,5-thiadiazole 1-oxide]	0.57 µmol/kg
NC(N)=Nc1nc(CSCCNc2n[s+]([O-])nc2O)cs1 (stereo not shown) [Example 116, 3-{2-[(2-Guanidinothiazol-4-yl)methylthylthio]ethylamino}-4-hydroxy-1,2,5-thiadiazole 1-oxide]	> 10 µmol/kg

SMILES	ED50
CN=C(N)Nc1nc(CSCCNc2n[s+]([O-])nc2N)cs1 (stereo not shown) [Example 117, 3-Amino-4-{2-[(2-{2-methylguanidino}thiazol-4-yl)methylthio]-ethylamino}-1,2,5-thiadiazole 1-oxide]	~0.5 µmol/kg
CNc1nc(CSCCNc2n[s+]([O-])nc2N)cs1 (stereo not shown) [Example 119]	> 10 µmol/kg
CN=C(NC)Nc1nc(CSCCNc2n[s+]([O-])nc2N)cs1 (stereo not shown) [Example 120, 3-Amino-4-{2-[(2-{2,3-dimethylguanidino}thiazol-4-yl)-methylthio]ethylamino}-1,2,5-thiadiazole I-oxide]	~5 µmol/kg
N=C(N)Nc1nc(CSCCNc2n[s+]([O-])nc2NCCSCc2csc(NC(=N)N)n2)cs1 (stereo not shown) [Example 121, 3,4-Bis-{2-[(2-guanidinothiazol-4-yl)methylthio]ethylamino}-1,2,5-thiadiazole 1-oxide]	0.19 µmol/kg
CNC1=NS(=O)(=O)N=C1NCCSCc1csc(N)n1 [Example 122, 3-{2-[(2-Aminothiazol-4-yl)methylthio]ethylamino}-4-methylamino-1,2,5-thiadiazole 1,1-dioxide]	~10 µmol/kg
CN(C)Cc1ncc(CSCCNc2n[s+]([O-])nc2N)s1 (stereo not shown) [Example 123, 3-Amino-4-{2-[(2-dimethylaminomethylthiazol-5-yl)methylthio]-ethylamino}-1,2,5-thiadiazole 1-oxide]	> 10 µmol/kg
Nc1nc(CSCCNc2n[s+]([O-])nc2N)cs1 (stereo not shown) [Example 124, 3-Amino-4-{2-[(2-aminothiazol-4-yl)methylthio]ethylamino}-1,2,5-thiadiazole 1-oxide]	> 10 µmol/kg
CN=C(NC)Nc1nc(CSCCNC2=NS(=O)(=O)N=C2NC)cs1 [Example 125, 3-Methylamino-4-{2-[(2-{2,3-dimethylguanidino)thiazol-4-yl)-methylthio]ethylamino}-1,2,5-thiadiazole 1,1-dioxide]	~10 µmol/kg
CNC1=NS(=O)(=O)N=C1NCCSCc1csc(N(C)C)n1 [Example 127, 3-{2-[(2-Dimethylaminothiazol-4-yl)methylthio]ethylamino}-4-methylamino-1,2,5-thiadiazole 1,1-dioxide]	> 10 µmol/kg
CNC1=NS(=O)(=O)N=C1NCCSCc1csc(N=C2NCCN2)n1 [Example 128, 3-{2-[(2-{2-Imidazolidinyl}iminothiazol-4-yl)methylthio]-ethylamino}-4-methy1amino-1,2,5-thiadiazole 1,1-dioxide]	~10 µmol/kg
CN(C)Cc1ccc(CSCCNC2=NS(=O)(=O)N=C2NCc2ccccn2)s1 [Example 129, 3-{2-[(5-Dimethylaminomethyl-2-thienyl)methylthio]ethylamino}-4-[(2-pyridyl)methylamino]-1,2,5-thiadiazole 1,1-dioxide]	~1 µmol/kg
CN(C)Cc1ccc(CSCCNC2=NS(=O)(=O)N=C2NCc2ccncc2)s1 [Example 130, 3-{2-[(5-Dimethylaminomethyl-2-thienyl)methylthio]ethylamino}-4-[(4-pyridyl)methylamino]-1,2,5-thiadiazole 1,1-dioxide]	2.3 µmol/kg
CCNC1=NS(=O)(=O)N=C1NCCSCc1ccc(CN(C)C)s1 [Example 131, 3-{2-[(5-Dimethylaminomethyl-2-thienyl)methylthio]ethylamino}-4-ethylamino-1,2,5-thiadiazole 1,1-dioxide]	~0.5 µmol/kg
CNC1=NS(=O)(=O)N=C1NCCCOc1cccc(CN2CCCCC2)c1 [Example 132, 3-Methylamino-4-{3-(3-piperidinomethylphenoxy)propylamino] - 1,2,5-thiadiazole 1,1-dioxide]	0.025 µmol/kg
NC1=NS(=O)(=O)N=C1NCCCOc1cccc(CN2CCCCC2)c1 [Example 134, 3-Amino-4-[3-(3-piperidinomethylphenoxy)propyiamino]-1,2,5-thiadiazole 1,1-dioxide]	0.024 µmol/kg
